Assay [1] deals with Human indoleamine 2,3-dioxygenase1 (hIDO1) (Homo sapiens (Human), UniProt P14902). Nature of the assay: In-vitro IDO1 enzyme assay (conversion of L-tryptophan to KYN). In kind it is biochemical. The conditions noted are these: read-out: IC50 (IDO1) Enz. The source says: Human indoleamine 2,3-dioxygenasel (hIDO1) catalyzes the oxidative cleavage of the pyrrole ring of the indole nucleus of tryptophan to yield N-formylkynurenine which can be converted to kynurenine (KYN) by deformylation. hIDO1 with an N-terminal His tag, expressed and purified from E. coli cells was procured from either Enzo LifeScienccs, NY, USA). Unless otherwise stated, all materials were procured from Sigma Aldrich, Mo., USA.
The assay monitoring the conversion of L-tryptophan to KYN was carried out as follows. hIDO1 (10 nM) was incubated with tryptophan (30 μM) in the presence of ascorbic acid (20 mM), methylene blue (10 μM) and catalase (100 μg/mL) in potassium phosphate buffer (50 mM; pH 6.5) at 37C for 30 min. The reaction was terminated with 30% trichloroacetic acid (TCA) and further incubated at 65C for 15 min to fully convert N-formylkynurenine to KYN. The reaction mixture was then centrifuged to remove sediments and the KYN in the supernatant was estimated by UV-visible absorption spectroscopy at 360 nm using a Waters HPLC system fitted with a C-18 column or by LC/MS/MS. See, Sono, 1980, J. Biol. Chem., 255:1339-1345, which is herein incorporated by reference.
Percent inhibition at each concentration of test compounds was determined by estimating the decrease in KYN with reference to the reaction control with 1% DMSO vehicle. Data were analyzed using nonlinear regression to generate IC50 values using Graph Pad Prism® 5.

Assay [2] concerns the target Human TDO (hTDO)-transfected CHO-K1 cells (Homo sapiens (Human), UniProt P48775). The assay can be described thus: CHO-K1 cell based TDO assay. The note with it: hTDO cellular assay. Here is the method:
Human TDO (hTDO)-transfected CHO-K1 cells were used to identify test compounds that inhibit TDO activity and reduce Kynurenine production. CHO-K1 cells (ATCC) were cultured in DMEM supplemented with sodium bicarbonate (2.1 g/L), HEPES (4.1 g/L), L-glutamine (2 mM), non-essential amino acid (84 mg/L) and fetal bovine serum (10%) and maintained at 95% humidity and 5% CO2 in a 37° C. incubator. The TDO gene (TDO2) (Accession number NM_005651.1) was purchased from Origene (USA) and stably expressed in CHO-Kl cells using the expression vector pcDNA4/Myc-HisB Hygro (Life Technologies, USA). TDO-expressing clones were identified based on the kynurenine production by the cells. Expanded clones were used for assay as described below. Unless otherwise stated, all materials were procured from Sigma.
hTDO transfected CHO-K1 cells (0.05 million/well) were seeded in a 96-well plate and maintained overnight in DMEM containing 10% FBS (200 μL) at 95% humidity and 5% CO2 in a 37° C. incubator. The following day, cells were washed and incubated with test compounds (typically 31 μM to 10 nM, final volume 150 μL) in Hanks Balanced Salt Solution (HBSS) containing 80 μM L-tryptophan for 2 hours. Supernatant (150 μL) from the cells was treated with 30% TCA ([…]) to precipitate proteins. Supernatants were further incubated at 65° C. for 15 min to convert N-formylkynurenine to kynurenine. KYN in the supernatant was measured by LC/MS/MS using an API4000 mass spectrometer (Applied Biosystems) coupled to a Shimadzu Prominence LC system fitted with a C18 column.
Percent inhibition of the test compounds was determined by measuring the decrease in KYN as compared to the reaction control (DMSO vehicle). IC50 values were calculated using Graph Pad Prism® 5 as described above.

Chain of Human indoleamine 2,3-dioxygenase1 (hIDO1) (P14902 whole entry): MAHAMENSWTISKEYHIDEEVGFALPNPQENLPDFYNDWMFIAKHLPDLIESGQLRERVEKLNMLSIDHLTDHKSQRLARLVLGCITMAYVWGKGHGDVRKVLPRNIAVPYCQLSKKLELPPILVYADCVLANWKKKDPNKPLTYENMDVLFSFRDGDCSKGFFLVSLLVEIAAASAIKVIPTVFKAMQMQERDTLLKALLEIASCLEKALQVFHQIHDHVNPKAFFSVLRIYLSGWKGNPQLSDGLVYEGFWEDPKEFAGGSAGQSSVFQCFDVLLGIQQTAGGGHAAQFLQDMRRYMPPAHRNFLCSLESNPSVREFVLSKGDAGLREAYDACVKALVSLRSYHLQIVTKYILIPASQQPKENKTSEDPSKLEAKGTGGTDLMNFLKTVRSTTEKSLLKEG
Chain of Human TDO (hTDO)-transfected CHO-K1 cells (P48775 whole entry): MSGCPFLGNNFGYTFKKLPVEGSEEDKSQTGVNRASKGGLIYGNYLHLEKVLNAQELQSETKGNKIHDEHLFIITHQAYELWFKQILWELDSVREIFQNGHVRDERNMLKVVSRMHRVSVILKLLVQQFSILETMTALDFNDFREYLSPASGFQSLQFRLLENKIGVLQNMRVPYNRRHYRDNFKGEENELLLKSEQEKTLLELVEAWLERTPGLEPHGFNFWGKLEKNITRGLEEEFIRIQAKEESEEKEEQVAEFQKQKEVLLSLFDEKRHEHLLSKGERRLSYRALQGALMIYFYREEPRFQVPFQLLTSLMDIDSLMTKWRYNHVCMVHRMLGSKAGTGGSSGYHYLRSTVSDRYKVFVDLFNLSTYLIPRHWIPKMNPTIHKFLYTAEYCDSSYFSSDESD

As for `Nc1oc2cccnc2c1Nc1ccc(F)c(Cl)c1` [Compound 1, N^3-(3-chloro-4-fluoro-phenyl)-furo[3,2-b]pyridine-2,3-diamine], the half-maximal inhibitory concentration (IC50) in assay [1] was below 200 nM.

Regarding `Nc1oc2cnccc2c1Nc1ccc(C(F)(F)F)cc1` [Compound 6, N^3-(4-(Trifluoromethyl)phenyl)furo[2,3-c]pyridine-2,3-diamine], the IC50 in assay [2] is 500 to 2000 nM; in assay [1], above 1000 nM.

For the compound `Nc1oc2cnccc2c1Nc1ccc(Cl)cc1Cl` [Compound 7, N^3-(2,4-Dichlorophenyl)furo[2,3-c]pyridine-2,3-diamine], the half-inhibitory concentration (IC50) in assay [2] is above 2000 nM; in assay [1], above 1000 nM.

As for `Nc1oc2cnccc2c1Nc1ccc(N2CCOCC2)cc1` [Compound 11, N^3-(4-Morpholinophenyl)furo[2,3-c]pyridine-2,3-diamine], the half-inhibitory concentration (IC50) in assay [2] was above 2000 nM; in assay [1], above 1000 nM.

As to `Nc1oc2cnccc2c1Nc1cc(F)c(F)cc1F` [Compound 12, N^3-(2,4,5-Trifluorophenyl)furo[2,3-c]pyridine-2,3-diamine], the IC50 in assay [2] is above 2000 nM; in assay [1], above 1000 nM.

On to `Nc1oc2cnccc2c1Nc1ccc(Cl)cc1` [Compound 17, N^3-(4-Chlorophenyl)furo[2,3-c]pyridine-2,3-diamine], for which the figures for the half-maximal inhibitory concentration (IC50) in assay [2] and in assay [1] were 500 to 2000 nM and above 1000 nM, respectively.

Turning to `Nc1oc2cnccc2c1Nc1ccc(I)c(Cl)c1` [Compound 18, N^3-(3-Chloro-4-iodophenyl)furo[2,3-c]pyridine-2,3-diamine], the IC50 is 500 to 2000 nM in assay [2] and above 1000 nM in assay [1].

For `Nc1oc2cnccc2c1Nc1ccc(Cc2ccccc2)cc1` [Compound 23, N^3-(4-Benzylphenyl)furo[2,3-c]pyridine-2,3-diamine], the half-inhibitory concentration (IC50) in assay [2] is 500 to 2000 nM; in assay [1], above 1000 nM.

In the case of `Nc1oc2cnccc2c1Nc1ccccc1N1CCCCC1` [Compound 24, N^3-(2-(Piperidin-1-yl)phenyl)furo[2,3-c]pyridine-2,3-diamine], the 50% inhibitory concentration (IC50) in assay [2] is above 2000 nM; in assay [1], above 1000 nM.

For `N#Cc1cccc(Nc2c(N)oc3cnccc23)c1F` [Compound 28, 3-((2-Aminofuro[2,3-c]pyridin-3-yl)amino)-2-fluorobenzonitrile], the values for the 50% inhibitory concentration (IC50) in assay [2] and in assay [1] were above 2000 nM and above 1000 nM, respectively.

As for `Nc1oc2cnccc2c1Nc1ccc(Oc2ccccc2)cc1` [Compound 29, N^3-(4-Phenoxyphenyl)furo[2,3-c]pyridine-2,3-diamine], the values for the 50% inhibitory concentration (IC50) in assay [2] and in assay [1] were above 2000 nM and above 1000 nM, respectively.

In the case of `Nc1oc2cnccc2c1Nc1ccc(F)cc1Cl` [Compound 30, N^3-(2-Chloro-4-fluorophenyl)furo[2,3-c]pyridine-2,3-diamine], the results for the half-inhibitory concentration (IC50) in assay [2] and in assay [1] were 500 to 2000 nM and above 1000 nM, respectively.

In the case of `Nc1oc2cnccc2c1Nc1ccc(Cl)c(Cl)c1Cl` [Compound 31, N^3-(2,3,4-Trichlorophenyl)furo[2,3-c]pyridine-2,3-diamine], the figures for the concentration for half-maximal inhibition (IC50) in assay [2] and in assay [1] were above 2000 nM and above 1000 nM, respectively.

On to `CC(C)(C)c1cc(Nc2c(N)oc3cnccc23)cc(C(C)(C)C)c1` [Compound 32, N^3-(3,5-Di-tert-butylphenyl)furo[2,3-c]pyridine-2,3-diamine], for which the IC50 in assay [2] was 500 to 2000 nM; in assay [1] it was above 1000 nM.

For the compound `COc1ccc(Nc2c(N)oc3cnccc23)c(OC)c1` [Compound 34, N^3-(2,4-Dimethoxyphenyl)furo[2,3-c]pyridine-2,3-diamine], the IC50 is above 2000 nM in assay [2] and above 1000 nM in assay [1].

For `C#Cc1ccc(Nc2c(N)oc3cnccc23)cc1` [Compound 36, N^3-(4-Ethynylphenyl)furo[2,3-c]pyridine-2,3-diamine], the concentration for half-maximal inhibition (IC50) in assay [2] is 500 to 2000 nM; in assay [1], above 1000 nM.

`CC(C)Oc1cccc(Nc2c(N)oc3cnccc23)c1` [Compound 37, N^3-(3-Isopropoxyphenyl)furo[2,3-c]pyridine-2,3-diamine]: the IC50 in assay [2] was above 2000 nM; in assay [1], above 1000 nM.

For `COc1cc(Nc2c(N)oc3cnccc23)cc(OC)c1` [Compound 38, N^3-(3,5-Dimethoxyphenyl)furo[2,3-c]pyridine-2,3-diamine], the concentration for half-maximal inhibition (IC50) in assay [1] is above 1000 nM.

On to `N#Cc1ccc(Nc2c(N)oc3cnccc23)cc1` [Compound 39, 4-((2-Aminofuro[2,3-c]pyridin-3-yl)amino)benzonitrile], for which the IC50 in assay [2] was 500 to 2000 nM; in assay [1], above 1000 nM.

Regarding `CC(=O)c1ccc(Nc2c(N)oc3cnccc23)cc1` [Compound 41, 1-(4-((2-Aminofuro[2,3-c]pyridin-3-yl)amino)phenyl)ethanone], the IC50 was 500 to 2000 nM in assay [2] and above 1000 nM in assay [1].

For `Nc1oc2cnccc2c1Nc1ccc(F)c(Cl)c1Cl` [Compound 45, N^3-(2,3-Dichloro-4-fluorophenyl)furo[2,3-c]pyridine-2,3-diamine], the IC50 in assay [2] is above 2000 nM; in assay [1] it was above 1000 nM.

In the case of `Nc1oc2cnccc2c1Nc1cccnc1` [Compound 49, N^3-(Pyridin-3-yl)furo[2,3-c]pyridine-2,3-diamine], the half-maximal inhibitory concentration (IC50) in assay [2] is 500 to 2000 nM; in assay [1], above 1000 nM.

Turning to `Nc1oc2cnccc2c1Nc1ccc(OC(F)(F)F)cc1` [Compound 50, N^3-(4-(Trifluoromethoxy)phenyl)furo[2,3-c]pyridine-2,3-diamine], the IC50 was 500 to 2000 nM in assay [2] and above 1000 nM in assay [1].

In the case of `Nc1oc2cnccc2c1Nc1cncc(Cl)c1` [Compound 52, N^3-(5-Chloropyridin-3-yl)furo[2,3-c]pyridine-2,3-diamine], the values for the IC50 in assay [2] and in assay [1] were 500 to 2000 nM and above 1000 nM, respectively.

On to `Nc1oc2cnccc2c1Nc1cccc(-c2ccccc2)c1` [Compound 53, N^3-([1,1′-Biphenyl]-3-yl)furo[2,3-c]pyridine-2,3-diamine], for which the figures for the IC50 in assay [2] and in assay [1] were above 2000 nM and above 1000 nM, respectively.

For `Cc1ccc(Nc2c(N)oc3cnccc23)c(C)c1` [Compound 54, N^3-(2,4-Dimethylphenyl)furo[2,3-c]pyridine-2,3-diamine], the IC50 in assay [2] is 500 to 2000 nM; in assay [1], above 1000 nM.

In the case of `Cc1ncc(CO)c2c(Nc3ccc(F)c(Cl)c3)c(N)oc12` [Compound 56, (2-amino-3-((3-chloro-4-fluorophenyl)amino)-7-methylfuro[2,3-c]pyridin-4-yl)methanol], the figures for the half-maximal inhibitory concentration (IC50) in assay [2] and in assay [1] were above 2000 nM and above 1000 nM, respectively.

On to `Nc1oc2cncc(Cl)c2c1Nc1ccc(F)c(Cl)c1` [Compound 57, 4-Chloro-N^3-(3-chloro-4-fluoro-phenyl)-furo[2,3-c]pyridine-2,3-diamine], for which the IC50 in assay [2] was 500 to 2000 nM; in assay [1], above 1000 nM.

For `CC(C)(C)c1cccc(Nc2c(N)oc3cnccc23)c1` [Compound 61, N^3-(3-(tert-Butyl)phenyl)furo[2,3-c]pyridine-2,3-diamine], the half-maximal inhibitory concentration (IC50) in assay [2] was above 2000 nM; in assay [1], above 1000 nM.

`Nc1sc2ccc(-c3ccccc3)cc2c1Nc1ccc(F)c(Cl)c1` [Compound 134, N^3-(3-chloro-4-fluorophenyl)-5-phenylbenzo[b]thiophene-2,3-diamine]: the IC50 in assay [1] is above 1000 nM.

Turning to `O=C(Nc1oc2cnccc2c1N(C(=O)OCc1ccccc1)c1ccc(F)c(Cl)c1)OCc1ccccc1` [Compound 140, Benzyl (2-(((benzyloxy)carbonyl)amino)furo[2,3-c]pyridin-3-yl)(3-chloro-4-fluorophenyl)carbamate], the IC50 in assay [1] was above 1000 nM.

Consider `Nc1oc2c(-c3ccc(F)c(F)c3F)nccc2c1Nc1ccc(F)c(Cl)c1` [Compound 171, N^3-(3-Chloro-4-fluorophenyl)-7-(2,3,4-trifluorophenyl)furo[2,3-c]pyridine-2,3-diamine], for which the IC50 in assay [1] is below 200 nM.

As to `Nc1sc2c(-c3cncc4ccccc34)cccc2c1Nc1ccc(F)c(Cl)c1` [Compound 281, N^3-(3-Chloro-4-fluorophenyl)-7-(isoquinolin-4-yl)benzo[b]thiophene-2,3-diamine], the IC50 in assay [2] was above 2000 nM.

The IC50 is the concentration that inhibits the measured activity by half.

Source of the values: patent US10294212B2 (CURADEV PHARMA PRIVATE LTD., priority 2013, dated 2019).
